From patent EP3027213B1, “COMPOSITIONS FOR AMELIORATING AND/OR PREVENTING ADVERSE SIDE EFFECTS IN ANTIBIOTIC THERAPY” (priority 2013, dated 2015)
“Also recorded” adds a separate entry of the source. Where two headings read alike, the source gives them in different places.

What was measured:
143B.TK^- cells [1] = assay type: cell-based, human
Protocol: Left panel: 143B.TK^- cells containing a green colorizing gene (GFP, green color) were seeded and grown to the original density in normal growth medium (left, 1). At day 1, medium was changed to allow cell growth under pyruvate and uridine free conditions; the medium was supplemented with chloramphenicol (or linezolid, or tigezycline; see example 1). […] At day 6 (image 3), the imaged colony starts to disperse and diminishes. At day 8 (image 4), cell number further declines and cells ceased to exist (day 10). Right panel: 143B.TK^- cells containing a green colorizing gene (GFP, green color) were seeded and grown to the original density in normal growth medium (right, 1). At day 1, medium was changed to allow cell growth under controlled pyruvate and uridine supply; the medium was supplemented with chloramphenicol (or linezolid, or tigezycline; see example 1).
In order to understand the side effects of antibiotics, we incubated cultured human cells with antibiotics that are known to impede cell's metabolism. The experiments were carried out with chloramphenicol, tigezycline or linezolid under otherwise identical conditions. […] Cells were treated with chloramphenicol (150 µg/ml culture medium, 450 µM; or linezolid, or tigezycline) and medium was exchanged on a daily basis. […] After additional 4 days, cells ceased to exist (see figure 1a).

[2] = test system: GFP-colorized 143B.TK- cells; assay type: cell-based; details: human, 13 days, 150 µg/ml
Excerpt: (§1) The panels display co-cultures grown on petri-dishes that contain a human dermal fibroblast (HDF) monolayer inoculated with GFP-colorized 143B.TK- cells imaged by fluorescence microscopy and phase contrast microscopy. The HDF cells represent a resting post-mitotic tissue, while the GFP-colorized 143B.TK- cells mimic mitotic active cells. • Figure 1b, left panel: Without pyruvate and uridine, the side effect of chloramphenicol (or linezolid, or tigezycline) can be visualized on co-cultures similarly to the effect seen in figure 1. Approximately at day 4 of culture, the mitotic active colony enlarges and experiences growth retardation. […] The mitotic cells grow completely regularly. At day 8, the entire area is overgrown by the GFP-colorized 143B.TK^- cells.
(§2) To understand the influence of the antibiotic on cell cycles state, a co-culture was established that was based on a primary fibroblasts monolayer (mimicking cells at resting state) that was inoculated with 143B.TK^- cells (mimicking cells in mitotic state, dividing cells).
(§3) However, the fibroblast layer was completely unaffected and vital to start regrowth again (proven by executing scratches through the monolayer; "wound-healing" set in immediately). […] Both side-effects could be removed by co-administering uridine and/or pyruvate or derivatives thereof.

[3] = test system: human dermal fibroblast (HDF) monolayer; assay type: cell-based
Excerpt: as §1
(§4) The panels display co-cultures grown on petri-dishes that contain a human dermal fibroblast (HDF) monolayer inoculated with GFP-colorized 143B.TK^- cells and dsRED-colorized 143B.TK^-CAP-res cells. The dsRED-colorized 143B.TK^-CAP-res cells contain a mitochondrial genotype that renders the cells chloramphenicol resistant.
as §2, §3

B. subtilis DSM 347 = assay: Paper pad agar diffusion test, non-growth zone (Examples 2 and 3); assay type: cell-based; details: APT-plates as is or supplemented with uridine (50 µg/ml), sodium pyruvate (1 mM) or both; three concentrations; over night at 37°C
Protocol: (§5) Paper test pads (Rotiolabo, 6mm, Roth, Karlsruhe) were soaked with 7.5 µl of antibiotic-solution (concentrations used: 0.5 mM CAP; 0.77 mM CAP; 1.2 mM CAP; 0.15 mM LIN; 0.25 mM LIN; 0,4 mM LIN; 0.15 mM TIG; 0.25 mM TIG; 0.4 mM TIG) and placed on top of the agar plates (CAP- and LIN-solutions on APT/B. subtilis plates, TIG-solutions on LB/E. coli plates). Petri dishes were incubated over night at 37°C and analyzed by measuring the size of the non-growth zone of bacteria surrounding the antibiotics soaked paper pads (see figure 3a, and 3b).
(§6) Paper test pads (Rotiolabo, 6mm, Roth, Karlsruhe) were soaked with 7.5 µl of antibiotic-solution (concentrations used: 0.5 mM CAP; 0.77 mM CAP; 1.2 mM CAP; 0.15 mM LIN; 0.25 mM LIN, 0.4 mM LIN; 0.15 mM TIG, 0.25 mM TIG; 0.4 mM TIG; 0.5 mM CAP + 0.15 mM LIN; 0.77 mM CAP + 0.25 mM LIN; 1.2 mM CAP + 0.4 mM LIN; 0.5 mM CAP + 0.15 mM LIN + 0.15 mM TIG; 0.77 mM CAP + 0.25 mM LIN + 0.25 mM TIG; 1.2 mM CAP + 0.4 mM LIN + 0.4 mM TIG; 0.5 mM CAP + 0.15 mM TIG; 0.77 mM CAP + 0.25 mM TIG; 1.2 mM CAP + 0.4 mM TIG) and placed on top of the agar plates (CAP- and LIN-solutions on APT/B. subtilis plates, TIG-solutions on LB/E. coli plates). Petri dishes were incubated over night at 37°C and analyzed by measuring the size of the non-growth zone of bacteria surrounding the antibiotics soaked paper pads (see figure 2a, and 2b).

143B.TK^- cells [4] = assay: cells; assay type: cell-based; details: Homo sapiens, 240 h, chloramphenicol 50 nM - 300 µM, 10 days
Protocol: The half maximal inhibitory concentration (IC50) is a measure of the effectiveness of a compound in inhibiting biological or biochemical function. This quantitative measure indicates, how much of a particular drug or compound is needed to inhibit a given biological process by half. In this case, the IC50 value was determined for the side-effect of the antibiotic on human cells in the presence or absence of pyruvate and/or uridine. IC50 values were determined utilizing resazurin (Cell-Quanti-Blue Cell Viability Assay Kit, Biotrend Chemikalien GmbH, Köln), a fluorescent dye indicating vital living or dead cells. For the experiment, 24-well culture dishes were seeded with a dilution of 143B.TK^- cells (10^3 cells each). The culture medium was composed of DMEM FG0445 (containing sodium pyruvate, high-glucose, glutamine; at the discretion of the supplier) supplemented with 5% FCS and 0.5 % uridine. After an initial growth of two days, cells were washed in PBS. From here, cells were grown in DMEM F0435 (containg high-glucose, without pyruvate, without glutamine; at the discretion of the supplier) supplemented with 2 % glutamine and 5% FCS. Depending on the subsequent experiments, cell growth medium was further supplemented with: • 1. w/o chloramphenicol, w/o pyruvate, w/o uridine • 2. w chloramphenicol (50 nM - 300 µM), w/o pyruvate, w/o uridine • 3. w chloramphenicol (50 nM - 300 µM), w/o pyruvate, w uridine (50 µg/ml) • 4. w chloramphenicol (50 nM - 300 µM), w pyruvate (100 µg/ml), w/o uridine • 5. w chloramphenicol (50 nM - 300 µM), w pyruvate (100 µg/ml), w uridine (50 µg/ml)
Growth medium was changed every 12 hours. The experiment was carried out for 10 days.
Measures of sets 2-5 were normalized by measure 1. Thus, when cell vitality under chloramphenicol treatment is similar to normal cell growth (measure 1), the ratio of (measure 2, 3, 4, 5) /(measure 1) expressed in % should stay close to 1. […] When pyruvate or pyruvate + uridine were added to the growth medium, IC50 of CAP was out of range (> 300 µM).

[5] = test system: GFP-colorized 143B.TK^- cells; assay type: cell-based; details: human
Excerpt: as §4
(§7) To see whether or not the side-effect of these antibiotics reside within the mitochondria of the cell, a co-culture was established that was made of a primary fibroblast monolayer inoculated with 143B.TK^- and 143.TK^-CAP^res cells. The latter cell line is identical to the 143B.TK- cell line, except that these cells carry a CAP resistant mutation within the 16S rRNA gene located within the mitochondrial genome and are differently color coded.

[6] = test system: dsRED-colorized 143B.TK^-CAP-res cells; assay: Co-culture with chloramphenicol-sensitive and -resistant cells: resistant cells (Fig. 1d); assay type: cell-based, human; details: co-culture on HDF monolayer with 143B.TK^- cells, uridine and pyruvate not supplied
Excerpt: as §4, §7

E. coli DH5α = assay: Paper pad agar diffusion test, non-growth zone (Examples 2 and 3); assay type: cell-based; details: LB plates as is or supplemented with uridine (50 µg/ml), sodium pyruvate (1 mM) or both; three concentrations; over night at 37°C
Protocol: as §5, §6

[7] = test system: human HT29 rho zero cell line; assay: Growth of rho zero cells with alternative pyruvate or uridine sources, phase contrast microscopy (Example 5, Fig. 6); assay type: cell-based; details: day 9
Protocol: Side effects of antibiotics can be ameliorated by administration of pyruvate and uridine. This observation can be further substantiated by applying alternative pyruvate or uridine sources, as for example alanine and uridine monophosphate (UMP). • Alternative pyruvate source: To challenge this hypothesis, cells devoid of mitochondrial DNA (rho zero cells) resembling cells that were treated with the antibiotics and have lost their mitochondrial encoded proteins, were cultured in the presence of uridine, alanine and uridine or pyruvate and uridine. […] Cells growth medium was supplemented with uridine (0.2 mM uridine) or alanine (1-10 mM alanine) and uridine (0.2 mM uridine) or pyruvate (1 mM sodium pyruvate) and uridine (0.2 mM uridine) (see figure 6a). […] Thus, pyruvate can be substituted by alternative pyruvate sources to ameliorate side effects of antibiotics. • Alternative uridine source: To challenge this hypothesis, cells devoid of mitochondrial DNA (rho zero cells) resembling cells that were treated with the antibiotics and have lost their mitochondrial encoded proteins, were cultured in the presence of UMP, alanine and UMP or pyruvate and UMP. […] Cells growth medium was supplemented with UMP (0.2 mM UMP) or alanine (1-10 mM alanine) and UMP (0.2 mM UMP) or pyruvate (1 mM sodium pyruvate) and UMP (0.2 mM UMP) (see figure 6b). […] Thus, UMP can be substituted by alternative pyrimidine source to ameliorate side effects of antibiotics.

[8] = 0.2 mM uridine source alone, without any pyruvate source

Compound	cell growth (143B.TK^- cells [1])	cell growth (143B.TK^- cells [1]; human, 150 µg/ml)	growth of the mitotic active colony [2]	cell vitality of the HDF monolayer [3]	Antibiotic effect (size of the non-growth zone) (B. subtilis DSM 347)	Antibiotic effect (size of the non-growth zone) (E. coli DH5α)	cell growth [7, 8]	also measured
CC(=O)NC[C@H]1CN(c2ccc(N3CCOCC3)c(F)c2)C(=O)O1 [linezolid]	growth behavior of the cells was not altered by the antibiotic	cell growth retarded and came to a halt after 6 days	finally ceases to exist at day 13	no change in cell vitality	not rendered by the co-administered compounds uridine and/or pyruvate; also recorded: independent of pyruvate, uridine or pyruvate + uridine supplementation			
O=C(N[C@H](CO)[C@H](O)c1ccc([N+](=O)[O-])cc1)C(Cl)Cl [chloramphenicol]	growth behavior of the cells was not altered by the antibiotic	cell growth retarded and came to a halt after 6 days	finally ceases to exist at day 13	no change in cell vitality	not rendered by the co-administered compounds uridine and/or pyruvate; also recorded: independent of pyruvate, uridine or pyruvate + uridine supplementation	independent of pyruvate, uridine or pyruvate + uridine supplementation		IC50 (143B.TK^- cells [4]; w pyruvate (100 µg/ml), w uridine (50 µg/ml)): > 300 µM; IC50 (143B.TK^- cells [4]; w pyruvate (100 µg/ml), w/o uridine): > 300 µM; IC50 (143B.TK^- cells [4]; w/o pyruvate, w uridine (50 µg/ml)): 7.5 µM; IC50 (143B.TK^- cells [4]; w/o pyruvate, w/o uridine): 3.2 µM; cell growth [5]: cells stopped growth after 4-5 days and ceased to exist after additional 6 days; cell growth [6]: exhibited no limitation in cell growth; also recorded: not influenced by the side-effect of chloramphenicol and grew regularly; cell growth ([6]; listed as CAP): not influenced by CAP
O=c1ccn([C@@H]2O[C@H](COP(=O)(O)O)[C@@H](O)[C@H]2O)c(=O)[nH]1 [UMP, uridine monophosphate]							did not exhibit cell growth; also recorded: cell growth stalls and comes to an halt	
CN(C)c1cc(NC(=O)CNC(C)(C)C)c(O)c2c1C[C@H]1C[C@H]3[C@H](N(C)C)C(O)=C(C(N)=O)C(=O)[C@@]3(O)C(O)=C1C2=O [tigezycline]	growth behavior of the cells was not altered by the antibiotic	cell growth retarded and came to a halt after 6 days	finally ceases to exist at day 13	no change in cell vitality		not rendered by the co-administered compounds uridine and/or pyruvate; also recorded: independent of pyruvate, uridine or pyruvate + uridine supplementation		
C[C@H](N)C(=O)O [alanine]								cell growth ([7]; on UMP supplemented media (0.2 mM UMP), alanine 1-10 mM or sodium pyruvate 1 mM): displayed regular cell growth; also recorded: cells prosper and grow almost in the same range as normal cells; cell growth ([7]; on uridine supplemented media (0.2 mM uridine), alanine 1-10 mM or sodium pyruvate 1 mM): displayed regular cell growth; also recorded: cells prosper and grow almost in the same range as normal cells
O=c1ccn([C@@H]2O[C@H](CO)[C@@H](O)[C@H]2O)c(=O)[nH]1 [uridine]							did not exhibit cell growth; also recorded: cell growth stalls and comes to an halt	
